# Assay results published in ChEMBL document CHEMBL1138535, “Comparison of beta-lactam and macrolide combination therapy versus fluoroquinolone monotherapy in hospitalized Veterans Affairs patients with community-acquired pneumonia” (2007).
# Columns and labels:
# Type in all cases: functional
# [1] = test system: Homo sapiens; experiment: Protection against community-acquired pneumonia in patient with pneumonia severity index-2 assessed as mortality at 500 mg administered once daily for 14 days
# [2] = test system: Homo sapiens; experiment: Protection against community-acquired pneumonia in patient with pneumonia severity index-3 assessed as mortality at 500 mg administered once daily for 14 days
# [3] = test system: Homo sapiens; experiment: Protection against community-acquired pneumonia in patient with pneumonia severity index-4 assessed as mortality at 500 mg administered once daily for 14 days
# [4] = test system: Homo sapiens; experiment: Protection against community-acquired pneumonia in patient with pneumonia severity index-5 assessed as mortality at 500 mg administered once daily for 30 days
# [5] = test system: Homo sapiens; experiment: Protection against community-acquired pneumonia in patient with pneumonia severity index-4 assessed as mortality at 500 mg administered once daily for 30 days
# [6] = test system: Homo sapiens; experiment: Protection against community-acquired pneumonia in patient with pneumonia severity index-5 assessed as mortality at 500 mg administered once daily for 14 days
# [7] = test system: Homo sapiens; experiment: Protection against community-acquired pneumonia in patient with pneumonia severity index-2 assessed as mortality at 500 mg administered once daily for 30 days
# [8] = test system: Homo sapiens; experiment: Protection against community-acquired pneumonia in patient with pneumonia severity index-3 assessed as mortality at 500 mg administered once daily for 30 days
smiles,measurement,setting,value
C[C@H]1COc2c(N3CCN(C)CC3)c(F)cc3c(=O)c(C(=O)O)cn1c23.C[C@H]1COc2c(N3CCN(C)CC3)c(F)cc3c(=O)c(C(=O)O)cn1c23.O [LEVOFLOXACIN],Activity,[1],0%
same,Activity,[2],2.1%
same,Activity,[3],4.2%
same,Activity,[4],36.6%
same,Activity,[5],5%
same,Activity,[6],26.8%
same,Activity,[7],0%
same,Activity,[8],6.3%
